The source of these data is PubChem BioAssay AID248 (DTP/NCI, 2004).

“And” between values parts separate entries of the source, which are not always exact repeats. Identical values can stand only once. Toxic doses and inconclusive results are not listed.

The test system of the assay is L1210 leukemia ip in BDF1 mice, survival T/C. Put plainly: NCI In Vivo Anticancer Drug Screen. Data for tumor model L1210 Leukemia (intraperitoneal) in B6D2F1 (BDF1) mice. The following applies: endpoint: mean survival time, higher = longer survival. In short, it runs like this:
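In this screen, tumor-bearing mice given compound are compared to those given vehicle, and their survival values are reported as a treated-to-control quotient.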

Setting [1] is: dose: 25.0 mg/kg/injection, schedule: Q01DX009 (ip), vehicle: saline with Tween-80.
Setting [2] is: dose: 100.0 mg/kg/injection, schedule: Q01DX001 (ip), vehicle: saline.
Where [3] appears, read: dose: 200.0 mg/kg/injection, schedule: Q01DX001 (ip), vehicle: saline.
[4] abbreviates: dose: 400.0 mg/kg/injection, schedule: Q01DX001 (ip), vehicle: saline.
[5] abbreviates: dose: 100.0 mg/kg/injection, schedule: Q01DX009 (ip), vehicle: Klucel (hydroxypropylcellulose) (HPC).
The mark [6] stands for this setting: dose: 200.0 mg/kg/injection, schedule: Q01DX009 (ip), vehicle: Klucel (hydroxypropylcellulose) (HPC).
Where [7] appears, read: dose: 400.0 mg/kg/injection, schedule: Q01DX009 (ip), vehicle: Klucel (hydroxypropylcellulose) (HPC).
[8] abbreviates: dose: 100.0 mg/kg/injection, schedule: Q01DX001 (ip), vehicle: saline with Tween-80.
[9] abbreviates: dose: 100.0 mg/kg/injection, schedule: Q01DX009 (ip), vehicle: saline with Tween-80.
Setting [10] is: dose: 200.0 mg/kg/injection, schedule: Q01DX009 (ip), vehicle: saline with Tween-80.
Where [11] appears, read: dose: 50.0 mg/kg/injection, schedule: Q01DX009 (ip), vehicle: saline with Tween-80.
Setting [12] is: dose: 100.0 mg/kg/injection, schedule: Q01DX009 (ip), vehicle: saline.
Setting [13] is: dose: 100.0 mg/kg/injection, schedule: Q04DX003 (ip), vehicle: saline with Tween-80.

Take `C1=C\CCCCCCCC/1`: the T/C runs as follows: (dose: 6.25 mg/kg/injection, schedule: Q01DX009 (ip), vehicle: saline with Tween-80) 93 % of control; (dose: 12.5 mg/kg/injection, schedule: Q01DX009 (ip), vehicle: saline with Tween-80) 104 % of control; under setting [1], 98 % of control; under setting [2], 101 % of control; under setting [3], 101 % of control; under setting [4], 95 % of control.

In the case of `Cc1cc2c(cc1C)NC(=O)CC(=O)N2`, the T/C reads like this: under setting [5], 96 % of control and 97 % of control; (dose: 100.0 mg/kg/injection, schedule: Q04DX003 (ip), vehicle: Klucel (hydroxypropylcellulose) (HPC)) 92 % of control; under setting [6], 86 % of control; (dose: 200.0 mg/kg/injection, schedule: Q04DX003 (ip), vehicle: Klucel (hydroxypropylcellulose) (HPC)) 100 % of control; under setting [7], 89 % of control; (dose: 400.0 mg/kg/injection, schedule: Q04DX003 (ip), vehicle: Klucel (hydroxypropylcellulose) (HPC)) 89 % of control.

On to `CC(=O)Nc1c(C)cccc1[N+](=O)[O-]`, for which, under setting [8], the T/C is 94 % of control.

For `Clc1ccccc1C(c1ccc(I)cc1)C(Cl)Cl` (stereo not drawn), the T/C was 101 % of control under setting [2], 93 % of control under setting [3] and 104 % of control under setting [4].

Consider `CCCCc1c(C)[nH]c(=S)[nH]c1=O`, for which the T/C runs as follows: under setting [9], 95 % of control; under setting [10], 100 % of control; (dose: 400.0 mg/kg/injection, schedule: Q01DX009 (ip), vehicle: saline with Tween-80) 91 % of control.

As for `CC(=O)N1c2ccccc2Sc2ccc(C(=O)CCl)cc21`, the T/C was 96 % of control (dose: 50.0 mg/kg/injection, schedule: Q01DX001 (ip), vehicle: carboxymethylcellulose (CMC)); 98 % of control (dose: 100.0 mg/kg/injection, schedule: Q01DX001 (ip), vehicle: carboxymethylcellulose (CMC)); 96 % of control (dose: 200.0 mg/kg/injection, schedule: Q01DX001 (ip), vehicle: carboxymethylcellulose (CMC)); 98 % of control (dose: 400.0 mg/kg/injection, schedule: Q01DX001 (ip), vehicle: carboxymethylcellulose (CMC)).

On to `CCOC(C#CC1CCCC1)OCC`, for which the T/C under setting [11] was 95 % of control, the T/C under setting [9] is 92 % of control and the T/C under setting [10] is 100 % of control.

`COC(=O)C1=NN(C(C)=O)C(c2ccc(C)cc2)(c2ccc(C)cc2)C1`: the T/C (dose: 100.0 mg/kg/injection, schedule: Q01DX001 (ip), vehicle: steriod suspending solution) was 105 % of control; the T/C (dose: 200.0 mg/kg/injection, schedule: Q01DX001 (ip), vehicle: steriod suspending solution) is 87 % of control; the T/C (dose: 400.0 mg/kg/injection, schedule: Q01DX001 (ip), vehicle: steriod suspending solution) is 92 % of control.

As for `S=C(Nc1ccc(Cl)cc1)Nc1ccc(Cc2ccc(NC(=S)Nc3ccc(Cl)cc3)cc2)cc1`, the T/C reads like this: (dose: 100.0 mg/kg/injection, schedule: Q04DX002 (ip), vehicle: Klucel (hydroxypropylcellulose) (HPC)) 113 % of control; (dose: 200.0 mg/kg/injection, schedule: Q04DX002 (ip), vehicle: Klucel (hydroxypropylcellulose) (HPC)) 106 % of control; (dose: 400.0 mg/kg/injection, schedule: Q04DX002 (ip), vehicle: Klucel (hydroxypropylcellulose) (HPC)) 92 % of control.

As to `COC(=O)C1=C[N+](C)(C)N=C1[O-]`, the T/C reads like this: under setting [12], 97 % of control; (dose: 200.0 mg/kg/injection, schedule: Q01DX009 (ip), vehicle: saline) 94 % of control; (dose: 400.0 mg/kg/injection, schedule: Q01DX009 (ip), vehicle: saline) 93 % of control.

In the case of `COc1ccccc1/C=C\C(=O)C1COCN1` (stereo not drawn), the T/C is, setting by setting: (dose: 75.0 mg/kg/injection, schedule: Q04DX003 (ip), vehicle: saline) 105 % of control; (dose: 150.0 mg/kg/injection, schedule: Q04DX003 (ip), vehicle: saline) 100 % of control; (dose: 300.0 mg/kg/injection, schedule: Q04DX003 (ip), vehicle: saline) 102 % of control.

As for `CCOC(=O)c1ccc(NC(=O)SCCSC(=O)Nc2ccc(C(=O)OCC)cc2)cc1`, the T/C was 90 % of control under setting [5], 91 % of control under setting [6] and 91 % of control under setting [7].

In the case of `C[n+]1ccc(NC(=O)c2ccc(NC(=O)c3cccc(C(=O)Nc4ccc(C(=O)Nc5cc[n+](C)cc5)cc4)c3)cc2)cc1`, the T/C was 108 % of control (dose: 1.25 mg/kg/injection, schedule: Q01DX Z (ip), vehicle: carboxymethylcellulose (CMC)); 113 % of control (dose: 2.5 mg/kg/injection, schedule: Q01DX Z (ip), vehicle: carboxymethylcellulose (CMC)); 108 % of control (dose: 5.0 mg/kg/injection, schedule: Q01DX Z (ip), vehicle: carboxymethylcellulose (CMC)); 111 % of control (dose: 10.0 mg/kg/injection, schedule: Q01DX Z (ip), vehicle: carboxymethylcellulose (CMC)); 161 % of control (dose: 20.0 mg/kg/injection, schedule: Q01DX Z (ip), vehicle: carboxymethylcellulose (CMC)); 166 % of control (dose: 40.0 mg/kg/injection, schedule: Q01DX Z (ip), vehicle: carboxymethylcellulose (CMC)). Further, the T/C (dose: 62.0 mg/kg/injection, schedule: Q01DX Z (oral), vehicle: carboxymethylcellulose (CMC)) is 97 % of control; the T/C (dose: 80.0 mg/kg/injection, schedule: Q01DX Z (ip), vehicle: carboxymethylcellulose (CMC)) was 188 % of control; the T/C (dose: 125.0 mg/kg/injection, schedule: Q01DX Z (oral), vehicle: carboxymethylcellulose (CMC)) is 98 % of control; the T/C (dose: 160.0 mg/kg/injection, schedule: Q01DX Z (ip), vehicle: carboxymethylcellulose (CMC)) is 153 % of control; the T/C (dose: 250.0 mg/kg/injection, schedule: Q01DX Z (oral), vehicle: carboxymethylcellulose (CMC)) was 112 % of control; the T/C (dose: 500.0 mg/kg/injection, schedule: Q01DX Z (oral), vehicle: carboxymethylcellulose (CMC)) was 108 % of control.

For the compound `CC[N+]12CC=C(CO)C1C(O)CC2` (stereo not drawn), the T/C by setting is: (dose: 50.0 mg/kg/injection, schedule: Q01DX009 (ip), vehicle: Klucel (hydroxypropylcellulose) (HPC)) 100 % of control; under setting [5], 95 % of control; under setting [6], 95 % of control.

With `CNc1nc(Cl)ncc1C`, the T/C (dose: 0.2 mg/kg/injection, schedule: Q01DX Z (ip), vehicle: methylcellulose (MC)) was 90 % of control and the T/C (dose: 0.5 mg/kg/injection, schedule: Q01DX Z (ip), vehicle: methylcellulose (MC)) is 89 % of control.

For the compound `CCOc1ccnc(OCC)n1`, the T/C was 86 % of control under setting [1]; 95 % of control (dose: 25.0 mg/kg/injection, schedule: Q04DX003 (ip), vehicle: saline with Tween-80); 100 % of control under setting [11]; 97 % of control (dose: 50.0 mg/kg/injection, schedule: Q04DX003 (ip), vehicle: saline with Tween-80); 91 % of control under setting [9]; 106 % of control under setting [13].

On to `CC1CCc2cc3c(cc2C1=O)sc1ccccc13` (stereo not drawn), for which the T/C under setting [2] is 108 % of control, the T/C under setting [3] is 105 % of control and the T/C under setting [4] was 89 % of control.

On to `COc1ccc(Cl)cc1NC(=O)Oc1ccccc1C(N)=O`, for which the T/C was 106 % of control and 113 % of control (dose: 25.0 mg/kg/injection, schedule: Q01DX009 (ip), vehicle: saline); 104 % of control and 112 % of control (dose: 25.0 mg/kg/injection, schedule: Q04DX002 (ip), vehicle: saline with Tween-80); 102 % of control (dose: 50.0 mg/kg/injection, schedule: Q01DX009 (ip), vehicle: saline); 102 % of control and 91 % of control (dose: 50.0 mg/kg/injection, schedule: Q04DX002 (ip), vehicle: saline with Tween-80); 107 % of control under setting [8]; 86 % of control under setting [9]. Moreover, the T/C by setting is: under setting [12], 98 % of control; under setting [13], 104 % of control; (dose: 200.0 mg/kg/injection, schedule: Q01DX001 (ip), vehicle: saline with Tween-80) 108 % of control; (dose: 200.0 mg/kg/injection, schedule: Q04DX002 (ip), vehicle: saline with Tween-80) 110 % of control.

Consider `O=C(Nc1ccc(Cl)c([N+](=O)[O-])c1)Nc1nc(C(F)(F)F)cc(=O)[nH]1`, for which the T/C is 98 % of control under setting [5], 95 % of control under setting [6] and 93 % of control under setting [7].

As to `Cc1coc(NS(=O)(=O)c2ccc(N=Nc3c(N)[nH]c(=S)[nH]c3=O)cc2)c1C`, the T/C is 113 % of control under setting [2], 107 % of control under setting [3] and 101 % of control under setting [4].
